What was measured:
[1] = tested on: neonatal (P2) cardiomyocytes; test: Induction of DNA synthesis (BrdU incorporation) in neonatal cardiomyocytes; format: cell-based, rat; conditions: BrdU labeling period 24 to 72 hours; harvested after 72 hours; optimal concentration of stimulus
Protocol: Animal experiments were performed in accordance with guidelines of Children's Hospital, Boston and UCLA. Ventricular cardiomyocytes from fetal (E19), 2-day-old (P2) and adult (250-350 g) Wistar rats (Charles River) were isolated as described with minor modifications (Engel et al. 1999; Engel et al. 2003). After digestion of fetal or neonatal hearts (0.14 mg/ml collagenase II (Invitrogen), 0.55 mg/ml pancreatin (Sigma)) cells were cultured in DMEM/F12 (GIBCO) containing 3 mM Na-pyruvate, 0.2% BSA, 0.1 mM ascorbic acid (Sigma), 0.5% Insulin-Transferrin-Selenium (100×), penicillin (100 U/ml), streptomycin (100 μg/ml), and 2 mM L-glutamine (GIBCO). Adult cardiomyocytes were cultured for 1 day in standard medium (DMEM, 25 mM Hepes, 5 mM taurine, 5 mM creatine, 2 mM L-carnitine (Sigma), 20 U/ml insulin (GIBCO), 0.2% BSA, penicillin (100 U/ml), and streptomycin (100 μg/ml)). Cells were stimulated in culture medium without BSA containing 2 mM L-glutamine. Neonatal and adult cardiomyocytes were initially cultured for 48 h in the presence of 20 μM cytosine β-D-arabinofuranoside (araC, Sigma) and 5% horse serum before stimulation to prevent proliferation of non-myocytes. Adult cardiomyocytes were incubated another 3 days with araC during stimulation. Neonatal cardiomyocytes were stimulated every day with growth factors for BrdU and H3P analyses (FGF1 and NRG-1-1β at 50 ng/ml, IL-1β at 100 ng/ml, R&D Systems, all diluted in 0.1% BSA/PBS). SB203580 and LY294002 (Calbiochem) was added every day. Adult cardiomyocytes were stimulated with fresh medium and SB203580 every 3 days.
Staining was performed as described (Supplemental Table S3) (Engel et al. 1999; Engel et al. 2003). Immune complexes were detected with ALEXA 350, ALEXA 488 or ALEXA 594-conjugated secondary antibodies (1:200, Molecular Probes). DNA was visualised with DAPI (4′,6′-diamidino-2-phenylindole, 0.5 μg/ml, Sigma). For BrdU, cells were cultured in 30 μM BrdU, incubated after permeabilization for 90 min in 2N HCl/1% triton X-100 and washed 3 times in PBS.
Eighteen to 40 hearts of 3 different litters were used for quantitative analyses of maximal areas. For immunofluorescence analyses 1,500 fetal or neonatal cardiomyocytes were counted. For adult cardiomyocyte analyses in vitro the following number of cells were counted: 500-2,000 for BrdU or Ki67, 9,000-25,000 for H3P, and 12,000-45,000 for aurora B. For in vivo MKK3bE and p38α knockout experiments 2 different litters were used. We counted 1,500-2,000 cells in each apex, left and right ventricle per heart. For adult experiments we analyzed 2 p38α^Δ/Δ and 2 p38^lox/lox hearts (24 sections each). Statistical significance was determined using Student's t test.
Several growth factors have a limited capacity to induce DNA synthesis in neonatal cardiomyocytes, including FGF1 (Pasumarthi and Field 2002). We screened 45 extracellular factors at two different concentrations for their ability to induce BrdU incorporation in neonatal (P2) cardiomyocytes. […] We confirmed previous studies showing that FGF1, IL-1β, and NRG-1-β1 are potent growth factors for neonatal cardiomyocytes (Supplemental Table S2) (Pasumarthi and Field 2002 Circ Res 90: 1044-54).
Inhibition of p38 activity by SB203580 increased BrdU incorporation 2.8-fold in neonatal cardiomyocytes stimulated with FGF1 (p<0.01). Similar results were obtained after stimulation with IL-1β and NRG-1-β1. Thus, inhibition of p38 activity augments growth factor-mediated DNA synthesis in neonatal cardiomyocytes.

[2] = tested on: myocardial infarction in adult rats; test: Thinning index (ventricular wall thinning) after myocardial infarction; format: in vivo, rat
Protocol: To determine whether p38 inhibition/FGF1 stimulation can induce cardiomyocyte proliferation in vivo and whether it has a positive effect on cardiac function after cardiac injury we created myocardial infarctions (MI) in adult rats (250 g) by coronary artery ligation. The p38 inhibitor SB203580 HCl or its vehicle, saline, were injected intraperitoneal every three days for the first month of the study. FGF1 or its carrier BSA was injected mixed with self-assembling peptides once into the infarct border zone immediately after coronary artery ligation. […] Animals were analyzed 24 hours, 2 weeks, and 3 month after surgery. […]
Ventricular wall thinning is an important parameter of heart function. Thus, we determined the thickness of the ventricular wall after injury. For this purpose we calculated the thinning index (ratio of minimal ventricular wall thickness to maximal thickness of the septum). […]
Scar formation was determined as fibrotic area/(fibrotic+non-fibrotic area) based on all sections. The thinning index is a ratio of the amount of wall thinning in the infarct normalized to the thickness of the septum and is calculated by dividing the minimal infarct wall thickness with maximal septal wall thickness (2 weeks: section 1 to 4, 3 month: section 1 to 6 from base).

FGF1: growth factor FGF1 (R&D Systems)
% of BrdU positive neonatal cardiomyoctes [1]: 61.8 ± 2.1%
left ventricular wall thinning (thinning index) ([2]; 2 weeks): significantly reduced
ventricular wall thinning ([2]; 3 month): significantly improved

From US20060281791A1, “Methods of increasing proliferation of adult mammalian cardiomyocytes through p38 map kinase inhibition” (CHILDREN'S MEDICAL CENTER CORPORATION, priority 2005, published 2006)
